Numbers after ± are expanded uncertainties.
Legend:
[1] = xn = mol fraction of the nth substance listed; details: 101 kPa, Liquid; for speed of sound: Frequency=3 MHz, Single path-length method; for mass density: Vibrating tube method
[2] = 101 kPa, Liquid, Vibrating tube method

CC(O)CO (stereo not given) [1,2-propanediol] + O=C1CCCN1
[1], x2 = 0
Details	mass density [kg/m3]	speed of sound [m/s]
303.15 K	1028.94 ± 1	1496.6 ± 1.3
308.15 K	1025.2 ± 1	1482.6 ± 1.3
313.15 K	1021.43 ± 1	1468.5 ± 1.3
318.15 K	1017.63 ± 1	1454.3 ± 1.3
323.15 K	1013.79 ± 1	1440.1 ± 1.3

OCCCO [propan-1,3-diol]
[2]
Details	mass density [kg/m3]
303.15 K	1046.56 ± 1
308.15 K	1043.43 ± 1
313.15 K	1040.28 ± 1
318.15 K	1037.11 ± 1
323.15 K	1033.92 ± 1

O=C1CCCN1 [2-pyrrolidinone] + OCCCO
[1], x1 = 1
Details	mass density [kg/m3]	speed of sound [m/s]
303.15 K	1103.07 ± 1	1617.7 ± 1.2
308.15 K	1098.99 ± 1	1601.3 ± 1.2
313.15 K	1094.9 ± 1	1585.4 ± 1.2
318.15 K	1090.82 ± 1	1570.4 ± 1.2
323.15 K	1086.75 ± 1	1553.5 ± 1.2

Reference: the NIST ThermoML archive (doi:10.1016/j.jct.2017.03.022)
